According to the supplement of paper PMC10933113:
Where a name gives a salt, the structure may show the parent alone. ± gives the uncertainty stated by the source.

Tests used:
THP-1 [1] = experiment: efficacy of IL-8 induction relative to DMSO (% activity); higher = stronger induction; conditions: exposure time: 18 h
[2] = tested on: cysteine peptide Ac-RFAACAA-COOH; experiment: AC50 of cysteine peptide concentration-response (direction given by sign of efficacy); higher = less potent; conditions: incubation time: 24 h
[3] = tested on: cysteine peptide Ac-RFAACAA-COOH; experiment: efficacy of cysteine peptide change (negative = depletion) (% activity); higher = less depletion; conditions: incubation time: 24 h
[4] = tested on: lysine peptide Ac-RFAAKAA-COOH; experiment: efficacy of lysine peptide change (negative = depletion) (% activity); higher = less depletion; conditions: incubation time: 24 h
THP-1 [5] = experiment: AC50 of IL-8 secretion induction; higher = less potent; conditions: exposure time: 18 h
[6] = tested on: KeratinoSens (HaCaT ARE-luciferase) cells; experiment: efficacy of ARE luciferase induction relative to DMSO (% activity over DMSO); higher = stronger induction; conditions: exposure time: 24 h
[7] = tested on: KeratinoSens (HaCaT ARE-luciferase) cells; experiment: AC50 of Nrf2/ARE luciferase induction; higher = less potent; conditions: exposure time: 24 h
[8] = tested on: KeratinoSens (HaCaT ARE-luciferase) cells; experiment: cytotoxicity AC50 (CellTiter-Fluor viability); higher = less cytotoxic; conditions: exposure time: 24 h

AC50 [2]	efficacy of cysteine peptide change [3]	efficacy of lysine peptide change [4]	SMILES	efficacy of IL-8 induction (THP-1 [1])	AC50 of IL-8 secretion induction (THP-1 [5])	efficacy of ARE luciferase induction [6]	AC50 of Nrf2/ARE luciferase induction [7]	cytotoxicity AC50 [8]
32.9 ± 2.2 µM	-86.4 ± 10	40.3 ± 17	Sc1nc2ccccc2s1 [2-Mercaptobenzothiazole]	21.3 ± 41	28.3 µM	87.1 ± 23	20.7 µM	–
1.52 ± 0.89 µM	-68.8 ± 8.1	-8.28 ± 7.3	Oc1c(I)cc(Cl)c2cccnc12 [Clioquinol]	125 ± 14	21.6 µM	87.3 ± 32	6.33 µM	10.4 ± 1.3 µM
–	5.74 ± 9.9	9.43 ± 16	CC1COc2ccccc2N1C(=O)C(Cl)Cl (stereo not drawn) [Benoxacor]	136 ± 40	79.8 µM	33.2 ± 15	–	46.5 ± 3.1 µM
–	-22.9 ± 5.9	-13.8 ± 13	O=C1c2ccccc2C(=O)C1c1ccc2ccccc2n1 [D & C Yellow II]	71.4 ± 9.3	38.4 µM	68.8 ± 34	11.6 µM	28.2 µM
–	0	33.8 ± 41	COC(=O)Nc1nc2cc(Sc3ccccc3)ccc2[nH]1 [Fenbendazole]	213 ± 14	39.8 µM	46 ± 53	–	3.46 ± 1.9 µM
18.7 ± 3.4 µM	-49.3 ± 1.9	0	O=[N+]([O-])c1cc(N(CCO)CCO)ccc1NCCO [HC Blue 2]	38.4 ± 82	66.8 µM	0	–	–
5.39 ± 1.6 µM	-105 ± 8.6	-31.7 ± 10	N=C(N)NN=C(/C=C/c1ccc([N+](=O)[O-])o1)/C=C/c1ccc([N+](=O)[O-])o1 [Nitrovin]	63.3 ± 30	11.6 µM	46.8 ± 140	–	6.97 ± 1.7 µM
–	-46 ± 19	77.4 ± 23	O=C(Nc1ccccc1)c1cc(Cl)ccc1O [5-Chlorosalicylanilide]	112 ± 7.5	35.5 µM	-20.1 ± 52	–	25.2 ± 2.9 µM
–	8.44 ± 17	0.82 ± 8.5	CCC1OCC(COc2ccc(Oc3ccccc3)cc2)O1 (stereo not drawn) [Diofenolan]	113 ± 5.8	34.2 µM	138 ± 84	13.7 µM	24.4 ± 4.2 µM
–	-32.7 ± 21	85.4 ± 13	CCCCNC(=S)NCCCC [N,N'-Dibutylthiourea]	90.2 ± 38	89.1 µM	41.8 ± 35	–	62 ± 25 µM
1.04 ± 0.07 µM	-94.7 ± 2.8	-11.6 ± 10	c1csc(SSc2cccs2)c1 [2-Thienyl disulfide]	81.3 ± 8.7	82.7 µM	126 ± 80	33.5 µM	41.4 ± 2.8 µM
–	-4.47 ± 11	56 ± 8.1	CCCCc1ccc2[nH]c(NC(=O)OC)nc2c1 [Parbendazole*]	77.1 ± 5.2	38.4 µM	66.8 ± 26	21.1 µM	5.79 ± 1.6 µM
38.4 ± 2.5 µM	-58.7 ± 20	182 ± 33	N=C1C=CC(=C(c2ccc(N)cc2)c2ccc(N)cc2)C=C1 [C.I. Basic Red 9 monohydrochloride]	100 ± 9.3	44.7 µM	38.6 ± 64	–	34.2 ± 2.2 µM
0.88 ± 0.21 µM	-98.9 ± 3.5	-94.5 ± 3.8	CCCCCCCCn1sc(Cl)c(Cl)c1=O [4,5-Dichloro-2-octyl-3(2H)-isothiazolone]	50.1 ± 4.7	11.7 µM	-41.3 ± 5.3	–	12.1 ± 0.79 µM

SMILES	AC50 [2]	efficacy of cysteine peptide change [3]	efficacy of lysine peptide change [4]	efficacy of IL-8 induction (THP-1 [1])	AC50 of IL-8 secretion induction (THP-1 [5])	efficacy of ARE luciferase induction [6]	AC50 of Nrf2/ARE luciferase induction [7]	cytotoxicity AC50 [8]
CC(C)CP(=S)(S)CC(C)C [Sodium bis(2-methylpropyl)phosphinodithioate]	76.5 ± 25 µM	-92.6 ± 1.4	108 ± 18	82.4 ± 10	38.4 µM	168 ± 27	–	21.1 ± 9.9 µM
CC(C)OC(=S)S [Proxan-sodium]	73.6 ± 37 µM	-94.2 ± 20	10.8 ± 20	59.9 ± 7.8	35.9 µM	59.5 ± 100	–	37.3 ± 6.7 µM
S=C=NCc1ccccc1 [BENZYL ISOTHIOCYANATE]	34.2 ± 2.2 µM	-57.9 ± 6.4	19.8 ± 9.3	40.8 ± 25	11.4 µM	278 ± 170	24.8 µM	–
CN(C)c1ccc(N(C)C)cc1 [*N,N,N',N'-Tetramethyl-p-phenylenediamine]	3.26 ± 0.91 µM	-93.1 ± 3.4	-28.7 ± 13	130 ± 7.7	76.5 µM	98.6 ± 34	20.9 µM	57 ± 12 µM
CC(C)CC(C)Nc1ccc(Nc2ccccc2)cc1 (stereo not drawn) [N-(1,3-Dimethylbutyl)-N'-phenyl-p-phenylenediamine]	0.88 ± 0.99 µM	-77.3 ± 10	2.97 ± 5.1	29.6 ± 1.7	32.9 µM	148 ± 100	26.4 µM	38.5 ± 5.3 µM
c1coc(-c2nc3ccccc3[nH]2)c1 [Fuberidazole]	12.3 ± 4.7 µM	-100 ± 9.1	-20.8 ± 15	78.3 ± 0.93	48.3 µM	96.2 ± 26	32 µM	38.7 ± 6.6 µM
C[C@@H]1O[C@@H](O[C@H]2C[C@@H](O)[C@]3(CO)[C@H]4[C@H](O)C[C@]5(C)[C@@H](C6=CC(=O)OC6)CC[C@]5(O)[C@@H]4CC[C@]3(O)C2)[C@H](O)[C@H](O)[C@H]1O [Ouabain]	–	3.17 ± 11	6.65 ± 12	35.4 ± 9.9	2.99 µM	220 ± 65	0.96 µM	1.58 µM
O=[N+]([O-])c1ccc(Oc2ccc(C(F)(F)F)cc2[N+](=O)[O-])cc1 [Fluorodifen]	–	-4.44 ± 7.7	2.81 ± 12	109 ± 12	43.1 µM	45.8 ± 80	–	29.6 ± 5.3 µM
